{"source": "patent US12011450B2", "about": "“Polyethylene glycol-conjugated glucocorticoid prodrugs and compositions and methods thereof” (Board of Regents of the University of Nebraska, priority 2015, dated 2024)", "key": {"[1]": {"test_system": "NZB/W F1 mice kidneys", "test": "Histological evaluation of PAS-stained kidney sections", "assay_type": "in vivo", "details": "2-month treatment end point", "excerpt": "The tissues were formalin-fixed, sectioned (3 μm) and periodic-acid schiff (PAS) stained for visual examination and 4 point grading by a pathologist, who is blind to the group design.\nThe periodic-acid schiff (PAS) stained kidney sections were also graded by a histopathologic score system with a 4-point scale."}, "[2]": {"test_system": "NZB/W F1 mice", "details": "mouse, in vivo"}, "[3]": {"test_system": "anti-dsDNA IgG", "test": "Serum anti-dsDNA IgG level", "assay_type": "in vivo, mice", "details": "4 and 8 weeks post-treatment initiation"}, "[4]": {"test_system": "MCP-1, IFN-β, IFN-γ", "test": "Serum inflammatory cytokine/chemokine analysis", "assay_type": "in vivo, mice", "details": "end of 2-month treatment", "description": "Their urine protein level was monitored weekly using Albustix Reagent Strips (Siemens Healthineers). Only mice with established nephritis, as evidenced by sustained albuminuria (≥100 mg/dL) over 2 weeks, were enrolled in the study. […] The Dex treatment (dexamethasone 21-phosphate disodium, 1.32 mg/kg, containing 1.00 mg/kg of dexamethasone, n=11) was given as daily i.v. injection. All treatments continued for 8 weeks. The body weight and proteinuria level of the animals was monitored on a weekly basis. Peripheral blood was collected from saphenous vein every 4 weeks for serum analyses. […] The surviving mice were monitored for an additional two weeks after the last treatment. The mice were then euthanized by CO2 asphyxiation, with all major tissues and organs isolated, weighted and processed at necropsy.\nFor inflammatory cytokine/chemokine analysis, the data obtained were log 2 transformed to make them more normally distributed. The mixed effects model with AR(1) correlation among repeated measures over time of the same animal were used to fit the log transformed cytokine expression values for each cytokine separately. […]"}, "[5]": {"test_system": "NZB/W F1 mice", "details": "mouse, in vivo", "remark": "listed apart in the source", "excerpt": "Therefore, at necropsy, we determined the mass of the adrenal glands in each mouse."}, "[6]": {"test_system": "NZB/W F1 mice", "details": "mouse, in vivo", "remark": "listed apart in the source", "excerpt": "Therefore, we monitored peripheral white blood cell (WBC) counts and during the experimental time course."}}, "note": "Entries after “also recorded” stand apart in the source; their conditions may differ."}
{"smiles": "C[C@@H]1C[C@H]2[C@@H]3CCC4=CC(=O)C=C[C@]4(C)[C@@]3(F)[C@@H](O)C[C@]2(C)[C@@]1(O)C(=O)COP(=O)([O-])[O-].[Na+].[Na+]", "note": "[Dex, dexamethasone 21-phosphate disodium]", "values": [{"measurement": "glomeruli with histological abnormities", "setting": "[1]", "result": 40, "unit": "%"}, {"measurement": "mice graded as severe glomerulonephritis (scored 3 and 4 points)", "setting": "[1]; 4-point scale", "result": "more than 40%"}, {"measurement": "total serum IgG level", "setting": "[2]", "result": "significant drop of serum IgG value"}, {"measurement": "serum anti-dsDNA IgG level", "setting": "[3]", "result": "significantly reduce; also recorded: significantly reduced the antibody level"}, {"measurement": "change in serum MCP-1, IFN-β and IFN-γ values", "setting": "[4]", "result": "did not induce the improvement"}, {"measurement": "adrenal gland mass", "setting": "[5]", "result": "significantly lower than the PEG-DiDex group"}, {"measurement": "peripheral white blood cell (WBC) counts", "setting": "[6]", "result": "lower than the saline group, even though there was no significant difference"}]}
